Assays:
Type in all cases: cell-based
IL-2 = IL-2 ELISA of co-culture supernatants of SMART-CAR expressing Jurkat T-cells; settings: CD19 positive Raji cells; 1:3 ratio; 4 hours; 250 nM dFKBP7
Description: FIG. 35 is a histogram bar plot quantifying IL-2 levels produced from SMART-CAR expressing Jurkat T-cells after co-incubation with antigen expressing K562 cells in a 1:3 ratio (T cell to K562 cell) for 24 hours as described in Example 29. IL-2 levels were quantified by ELISA using co-culture supernatants.
FIG. 36 is a histogram bar plot quantifying IL-2 levels produced from SMART-CAR expressing Jurkat T-cells after co-incubation with CD19 positive Raji cells in a 1:3 ratio (T cells to Raji cells) for 4 hours.
FIG. 35 illustrates the specificity in activation of SMART-CAR expressing T-cells for CD19 expressing target tumor cells. SMART-CAR expressing Jurkat T-cells were co-incubated with antigen expressing K562 cells in a 1:3 ratio (T cell to K562 cell) for 24 hours. IL-2 levels were quantified by ELISA using co-culture supernatants.
FIG. 36 illustrates the chemical control of SMART-CAR expressing T-cell activation using the hetero bifunctional molecule dFKBP7. SMART-CAR expressing Jurkat T-cells were co-incubated with CD19 positive Raji cells in a 1:3 ratio.

FKBP12WT = biological target: T1, FKBP12WT (Homo sapiens, UniProt P62942); assay: Immunoblot of wild type FKBP12 degradation in 293FT cells (CRBN-WT or CRBN-/-); settings: 4 hours
T1 construct: HA; expressed in transfected cells; host or cells: 293FT cells (CRBN-WT or CRBN-/-)
T1 sequence (P62942 whole entry): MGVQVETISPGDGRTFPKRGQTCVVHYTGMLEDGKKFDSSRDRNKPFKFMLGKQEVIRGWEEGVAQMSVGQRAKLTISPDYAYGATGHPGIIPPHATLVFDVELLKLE
Description: FIG. 6 is an immunoblot of cells treated with bi-functional molecules described in the present invention.
The dTAG is predicated on the selectivity of FKBP* specific ligands over endogenous, wild type FKBP. […] An immunoblot of cells treated with bi-functional molecules described in the present invention was performed. 293FT cells (CRBN-WT or CRBN−/−) expressing either HA-tagged FKBP12WT or FKBP* were treated with indicated concentrations of dFKBP7 for 4 hours.
Isogenic 293FT cells (CRBN-WT or CRBN−/−) were engineered to express either FKBP12WT or FKBP*. Cells were treated with 100 nM of either dFKBP7 or dFKBP13 for 4 hours before lysates were prepared for western immunoblot analysis.

FKBP* = biological target: T2, FKBP* (Homo sapiens, UniProt P62942, F37V); assay: Immunoblot of FKBP* degradation in 293FT cells (CRBN-WT or CRBN-/-); settings: 4 hours
T2 construct: HA; expressed in transfected cells; host or cells: 293FT cells (CRBN-WT or CRBN-/-)
T2 sequence (P62942 whole entry F37V): as the sequence (P62942 whole entry) above, with F37V counted along it
Description: FIG. 6 is an immunoblot of cells treated with bi-functional molecules described in the present invention. As described in Example 3, 293FT cells (CRBN-WT or CRBN−/−) expressing either HA-tagged FKBP12WT or FKBP* (also referred to as dFKBP12* herein) were treated with indicated concentrations of dFKBP7 for 4 hours.
FIG. 8 is an immunoblot of cells treated with heterobifunctional compounds described in the present invention. Isogenic 293FT cells (CRBN-WT or CRBN−/−) expressing either FKBP12WT or FKBP* were treated with 100 nM of either dFKBP7 or dFKBP13 for 4 hours (Example 5).
FIG. 9 is an immunoblot of cells treated with heterobifunctional compounds described in the present invention. Isogenic 293FT cells (CRBN-WT or CRBN−/−) expressing HA-tagged FKBP* were treated with the indicated dose of dFKBP13 for 4 hours (Example 6).
FIG. 11 is an immunoblot of cells treated with heterobifunctional compounds described in the present invention. 293FT cells (CRBN-WT) expressing FKBP* were pretreated with 1 uM Carfilzomib (proteasome inhibitor), 0.5 uM MLN4924 (neddylation inhibitor), and 10 uM Lenalidomide (CRBN binding ligand) for two hours prior to a 4 hour treatment with dFKBP13 (Example 8). Degradation of HA-tagged FKBP* by dFKBP13 was rescued by the proteasome inhibitor Carfilzomib, establishing a requirement for proteasome function.
The dTAG is predicated on the selectivity of FKBP* specific ligands over endogenous, wild type FKBP. In 293T cells expressing wild type FKBP12 or FKBP*, dFKBP7 induces targeted degradation only in FKBP* expressing cells. An immunoblot of cells treated with bi-functional molecules described in the present invention was performed. 293FT cells (CRBN-WT or CRBN−/−) expressing either HA-tagged FKBP12WT or FKBP* were treated with indicated concentrations of dFKBP7 for 4 hours.
In 293T cells expressing wild type FKBP12 or FKBP*, treatment with dFKBP7 and dFKBP13 induces targeted degradation only in FKBP* expressing cells. Isogenic 293FT cells (CRBN-WT or CRBN−/−) were engineered to express either FKBP12WT or FKBP*. Cells were treated with 100 nM of either dFKBP7 or dFKBP13 for 4 hours before lysates were prepared for western immunoblot analysis.
In an effort to define the optimal concentration of dFKB13 heterobifunctional compounds to induce degradation of FKBP*, degradation was measured upon treatment with increasing concentrations of dFKBP13. Isogenic 293FT cells (CRBN-WT or CRBN−/−) were engineered to expressed HA-tagged FKBP*. Cells were treated with the indicated dose of dFKBP13 for 4 hours before lysates were prepared for western immunoblot analysis.
293FT cells (CRBN-WT) were engineered to express FKBP*. Cells were pretreated with 1 uM Carfilzomib (proteasome inhibitor), 0.5 uM MLN4924 (neddylation inhibitor), and 10 uM Lenalidomide (CRBN binding ligand) for two hours prior to a 4-hour treatment with dFKBP13. Lysates were prepared and western immunoblot analysis performed. Degradation of HA-tagged FKBP* by dFKBP13 was rescued by the proteasome inhibitor Carfilzomib, establishing a requirement for proteasome function.

[1] = 293FT cells CRBN-WT or CRBN-/-, indicated concentrations
[2] = isogenic 293FT cells CRBN-WT or CRBN-/-, 100 nM

## CC[C@H](C(=O)N1CCCC[C@H]1C(=O)O[C@H](CCc1ccc(OC)c(OC)c1)c1cccc(OCC(=O)NCCCOCCOCCOCCCNC(=O)COc2cccc3c2C(=O)N(C2CCC(=O)NC2=O)C3=O)c1)c1cc(OC)c(OC)c(OC)c1 (some centres unmarked) [dFKBP7]
IL-2
  IL-2 production: completely suppressed
FKBP12WT; [1]
  Degradation of HA-tagged FKBP12WT (immunoblot): not FKBPWT
FKBP12WT; [2]
  Degradation of FKBP12WT or endogenous FKBP12 (immunoblot): not FKBP12WT or endogenous FKBP12
FKBP*; [1]
  Degradation of HA-tagged FKBP* (immunoblot): CRBN-dependent degradation of FKBP*
FKBP*; [2]
  Degradation of FKBP* (immunoblot): CRBN-dependent degradation of FKBP*
